A short description of data set [1]: MTT cell viability assay. The settings on record: mouse, CT26 cells, no radiation, read-out: IC50 (cytotoxicity). The format is cell-based, murine. As for the experimental part:
(§1) CT26, a murine colorectal carcinoma cell line, was cultured following the protocol provided by the ATCC. A complete growth medium was prepared by adding 50 mL fetal bovine serum (FBS; Atlanta Biologicals, Cat #S11150) and 5 mL penicillin-streptomycin (Corning Cat #30-002-CI) to 450 mL of RPMI 1640 medium (Corning, Cat #10-104-CV). The cells were sub-cultured every three days and stored in a Thermo Scientific Heracell 150i incubator at 37° C. A day before the experiment, the cells were washed with PBS and collected by trypsinization (37° C., 2 min) followed by neutralization with cell culture medium and centrifugation (1200 rpm, 5 min). The supernatant was removed, and cells were dispersed in new cell culture medium. The cell density was counted using a hemocytometer (Hausser Scientific, Cat #3200) to seed the desired number of cells on the experimental plate(s).
(§2) The cell viability was studied with CT26 cells using the standard MTT assays. Briefly, CT26 cells (10,000 cells per well) were seeded on clear 96-well plates (Corning Costar, Cat #3599). […] 20 μL of 10 mg/mL 3-(4,5-Dimethylthiazolyl-2)-2,5-diphenyltetrazolium bromide (MTT) solution was added into each well. After 4 h incubation at 37° C. and 5% CO2, the solution was discarded from each well, and 100 μL of DMSO was added to each well resulting in purple suspensions. The absorbance at 570 nm was measured using a BioTek Synergy MX multi-mode microplate reader.
In general terms: Tetrazolium dyes change colour on reduction, which living cells bring about.

In data set [2] the test system is CT26 cells. The data set can be described thus: MTT cell viability assay. The data set is classed as cell-based, murine. The note with it: 24 h; for toxicity / viability drop in the absence of radiation: 7-DHC concentration below 12.5 μg/mL. Here is the method:
as §1, §2

Data set [3] in a line: LC/MS analysis of autooxidation and lipid peroxidation. The settings on record: 320 kV, 5 Gy. As for the experimental part:
Samples were generated by mixing solutions of 10 mg/mL 7-DHC, or 5 mg/mL DHCEO in 5 mL solvent containing 4 mL CH3CN+1 mL Mil-Q-H2O (or 1 mL H2O2). Samples were treated with either PBS or 5 Gy IR followed by incubation for 24 h. The lipid sample was prepared by using 16:0-18:2 PC mixed with 7-DHC at a 3:1 mole ratio in 2:1 v/v of CHCl3:MeOH solution. The solvent was then rotor evaporated and the mixture was rehydrated in 1 mL Mil-Q-H2O. Samples were subjected to LC/MS analysis. Liquid chromatography was performed on an Applied Biosystems 140 B solvent delivery system using water with 0.1% formic acid as solvent A and acetonitrile as solvent B. The linear solvent gradient was from 70% B to 95% B over 20 minutes at a flow rate of 50 μl/min. A Thermo Hypersil-Keystone 1×150 mm Biobasic-4 column with 5 μm particle size and 300 A pore size was used. The effluent was directed into a Bruker Daltonics Esquire 3000 plus ion trap mass spectrometer equipped with an atmospheric pressure chemical ionization (electrospray ionization for the lipid sample) source. The instrument was scanned in enhanced mode from 340-500 m/z with the capillary at 4 KV. The dry as temperature was held at 300 degrees C. at a flow rate of 41/min nitrogen. The nebulizer was set to 15 PSI of nitrogen. The vaporizer temperature was held at 380 degrees C.

The conditions of data set [4]: cited from earlier work.
The target of data set [5] is NTSR1 (Homo sapiens, UniProt P30989). The note with it: compared to wildtype NTS; cited from earlier work.
The conditions of data set [6]: compared to wildtype NTS; cited from earlier work.
A short description of data set [7]: serum calcium level. The data set is classed as in vivo, balb/c mice. The settings on record: 200 μg/kg injected, healthy mice; tolerated level for mice 8.0-11.5 mg/dl.
Description: Blood samples were collected at 0, 2, 6, and 24 h for analysis.

SMILES strings stand for the structures. Where a SMILES comes first, the peptide text is derived from it. [ ]: non-standard residue; d: D form. The star is where a group is joined. ξ: configuration not given here. ξGly(4-Pip(1-amidino)) = N=C(N)N1CCC(C(N)C(=O)O)CC1; ξGly(piperidin-4-yl) = NC(C(=O)O)C1CCNCC1; ξTle = CC(C)(C)C(N)C(=O)O; ξP = O=C(O)C1CCCN1; X1 = CC(CS)C(=O)*

Sequence of NTSR1 (P30989 whole entry): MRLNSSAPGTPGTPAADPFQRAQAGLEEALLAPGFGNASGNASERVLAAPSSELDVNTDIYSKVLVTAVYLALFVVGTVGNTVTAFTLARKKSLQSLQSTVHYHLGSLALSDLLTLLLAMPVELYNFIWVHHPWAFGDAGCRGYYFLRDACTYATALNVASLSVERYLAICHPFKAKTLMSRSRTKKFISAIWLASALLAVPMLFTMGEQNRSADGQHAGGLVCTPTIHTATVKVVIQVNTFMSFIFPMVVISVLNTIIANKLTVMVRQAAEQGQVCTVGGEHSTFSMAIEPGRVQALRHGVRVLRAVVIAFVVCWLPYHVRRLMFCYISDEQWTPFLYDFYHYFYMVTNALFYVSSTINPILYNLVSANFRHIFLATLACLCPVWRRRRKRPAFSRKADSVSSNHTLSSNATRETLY

In general, IC50 refers to the concentration that gives 50% inhibition. For the molecule `CC(C)CCC[C@@H](C)[C@H]1CC[C@H]2C3=CC=C4C[C@@H](O)CC[C@]4(C)[C@H]3CC[C@]12C` [7-DHC, 7-dehydrocholesterol], the IC50 at 24 h in data set [1] came to 71.4 mg/L. Besides, the entries for the “toxicity / viability drop in the absence of radiation” value in data set [2] and in data set [2] (listed as free 7-DHC) were “Neither 7-DHC nor 7-DHC@PLGA NPs caused significant viability drop” and “minimal toxicity”, respectively. Further, the “conversion after radiation (LC/MS)” value in data set [3] was “converted to oxysterols”. For the same molecule, the solubility in water entry in data set [4] is “poorly soluble in water”.

As to `CC(C)C[C@H](NC(=O)C(NC(=O)[C@H](Cc1ccc(O)cc1)NC(=O)C1CCCN1C(=O)[C@H](CCCNC(=N)N)NC(=O)C(NC(=O)C1CCCN1C(=O)C(NC(=O)C(C)CS)C1CCNCC1)C1CCN(C(=N)N)CC1)C(C)(C)C)C(=O)O` (stereo partly drawn) [NTSmut] (X1-[ξGly(piperidin-4-yl)][ξP][ξGly(4-Pip(1-amidino))]R[ξP]Y[ξTle]L-OH), the “avidity to NTSR1” value in data set [5] was “nanomolar”. Moreover, the biological stability entry in data set [6] is reported as “much greater biological stability”.

For the molecule `C=C1/C(=C\C=C2/CCC[C@]3(C)[C@@H]([C@H](C)CCCC(C)(C)O)CC[C@@H]23)C[C@@H](O)C[C@@H]1O` [calcitriol], the serum calcium in data set [7] was determined as 17.5 mg/dL.

With `NCCC(=O)N[C@@H](Cc1cnc[nH]1)C(=O)O` [carnosine, reference compound], the “effect of co-incubation on toxicity induced by 7-DHC@PLGA NPs+IR” value in data set [2] (MTT, IR 5 Gy) was “mitigated toxicity”.

The values are drawn from patent US20250114455A1, “RADIOSENSITIZING COMPOSITIONS AND METHODS OF USE THEREOF” (University of Georgia Research Foundation, Inc., priority 2022, published 2025).
